As a reminder, the IC50 is the concentration needed to halve the response being measured.

Drawing on US10316038B2, “Pyrrolopyrimidine ITK inhibitors for treating inflammation and cancer” (ACLARIS THERAPEUTICS, INC., priority 2017, dated 2019), this text covers IC50 for 20 compounds.

Test [1] has as its system ITK phosphorylation of its substrate, PLCγ1, at Y783. Nature of the test: ITK target modulation assay (phospho-Y783 PLCγ1 immunoblot in Jurkat T cells). The settings on record: 2 hours compound, CD3/CD28 Dynabeads stimulation 100 sec, anti-phospho-Y783 PLCγ1 immunoblot, read-out: PLC-γ Inhibition IC50. The format is cell-based. How it is done: Target modulation was based upon the ability of a compound to inhibit ITK phosphorylation of its substrate, PLCγ1, at […]. Human Jurkat T cells were placed in snap-cap polypropylene tubes at 4 million per tube in 800 μL medium (RPMI1640 with 10% heat inactivated serum and […] 2-mercaptoethanol and supplemented with glutamine/penicillin/streptomycin). Compounds were added as 100 μL of 10× working stock solutions in medium with 1% DMSO (or medium with 1% DMSO for controls) and placed in a 37° C. incubator for 2 hours. Stimulation was carried out using CD3/CD28 Dynabeads to activate the T cell receptor and mimic antigen presenting cells. Beads were added for 100 sec at a ratio of 1 bead per cell, in 100 μL medium (or medium alone for unstimulated control). Starting at 70 sec, cells and beads were pelleted in a microfuge for 15 sec, the supernatant aspirated, and 50 μL lysis buffer was added per tube and mixed with the pellet at the 100 sec time point. Tubes were placed on a rotator for 30 min at 4° C., and cell debris was pelleted in a microfuge. Supernatant was mixed 1:1 with 2× Sample Buffer and subjected to SDS-polyacrylamide gel electrophoresis. After transfer to nitrocellulose, immunoblotting was done with anti-phospho-[…] PLCγ1 antibody. Immunoblots were visualized with ECL using horseradish peroxidase conjugated secondary antibody.
In general terms: In western blotting, separated proteins are transferred to a membrane and probed.

The next test concerns the target T1, ITK (Homo sapiens, UniProt Q08881).
T1 sequence (Q08881 1-620): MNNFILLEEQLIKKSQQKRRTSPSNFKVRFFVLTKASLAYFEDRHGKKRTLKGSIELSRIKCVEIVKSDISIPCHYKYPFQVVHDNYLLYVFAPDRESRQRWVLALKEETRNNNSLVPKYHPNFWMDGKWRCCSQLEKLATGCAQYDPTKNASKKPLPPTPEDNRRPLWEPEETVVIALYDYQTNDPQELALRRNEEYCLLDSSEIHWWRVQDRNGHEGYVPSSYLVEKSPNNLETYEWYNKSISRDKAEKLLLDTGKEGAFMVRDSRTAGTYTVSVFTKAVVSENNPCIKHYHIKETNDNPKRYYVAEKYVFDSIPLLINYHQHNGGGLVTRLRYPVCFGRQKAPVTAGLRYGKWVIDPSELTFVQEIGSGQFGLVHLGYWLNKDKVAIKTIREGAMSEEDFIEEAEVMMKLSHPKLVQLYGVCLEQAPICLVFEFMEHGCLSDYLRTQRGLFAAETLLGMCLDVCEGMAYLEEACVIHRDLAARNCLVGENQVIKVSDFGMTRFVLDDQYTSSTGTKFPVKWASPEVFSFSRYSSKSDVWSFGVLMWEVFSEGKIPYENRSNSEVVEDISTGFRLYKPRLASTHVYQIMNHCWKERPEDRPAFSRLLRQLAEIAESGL
Description: ITK inhibitor binding potency (LanthaScreen competitive binding assay). The settings on record: TR-FRET competitive binding, 10 nM ITK, 50 nM kinase tracer-236; pre-incubation condition not given; read-out: ITK Inhibition IC50. The text has this:
The ability of candidate compounds to interact with ITK is quantitated by a competitive binding assay using the LanthaScreen technology developed by Life Technologies. This assay is based on the binding of a proprietary, Alexa Fluor™ 647-labeled, ATP-competitive kinase inhibitor (kinase tracer-236) to the ITK expression construct in the presence of a Europium-conjugated antibody, resulting in a FRET (fluorescence resonance energy transfer) signal. Displacement of the kinase tracer by compound results in a lower emission ratio upon excitation of the Europium chelate. Candidate compounds are designed as potential irreversible inhibitors of ITK, capable of ligating to an active site cysteine residue resulting in time dependent covalent binding. The time dependent nature of irreversible inhibition is investigated by performing the binding assay with and without a pre-incubation of compound and ITK. […] The inhibitory potency of candidate compounds is measured in 20 mM HEPES pH 7.5, 10 mM MgCl2, 0.01% BSA, 0.0005% Tween-20, and 2% DMSO in the presence of 10 nM ITK, 2 nM Eu-anti-GST antibody, and 50 nM kinase tracer-236 using a 384-well plate format. Background signal is defined in the absence of ITK and uninhibited signal is defined in the presence of vehicle (2% DMSO) alone. Compounds were evaluated in an 11 point dose-response ranging from 20 uM to 0.34 nM. The binding assays are performed under two preincubation conditions to evaluate time dependence of inhibition. For the pre-incubation assay, ITK and Eu-anti-GST antibody are pre-incubated with compound or vehicle for two hours prior to the addition of kinase tracer. The non-preincubated assay is run under conditions where ITK and Eu-anti-GST antibody are added to a mixture of compound and kinase tracer. IC50 values of compounds are determined using a 4 parameter logistical fit of emission ratio as a function of the concentration of compound.
For orientation: Time-resolved FRET reads energy transfer from a long-lived donor to a nearby acceptor.

Where two headings read alike, the source gives them in different places.

Take `C=CC(=O)Nc1cc(-c2cnc3[nH]cc(-c4cccc(C#N)c4)c3c2)cc(-c2cnn(C)c2)c1` [Example 18, N-(3-(3-(3-cyano-phenyl)-1H-pyrrolo[2,3-b]-pyridin-5-yl)-5-(1-methyl-1H-pyrazol-4-yl)-phenyl)acrylamide]: the IC50 in test [1] (Homo sapiens, Jurkat, 2 h) is at most 1000 nM; on ITK, at most 100 nM.

For `C=CC(=O)Nc1cc(-c2cnc3[nH]cc(-c4cccc(F)c4)c3c2)cc(C(F)(F)F)c1` [Example 63, N-(3-(3-(3-fluoro-phenyl)-1H-pyrrolo[2,3-b]-pyridin-5-yl)-5-(trifluoro-methyl)phenyl)-acrylamide], the IC50 in test [1] (Homo sapiens, Jurkat, 2 h) was 1000 to 5000 nM; on ITK it was at most 1000 nM.

Turning to `C=CC(=O)Nc1cc(-c2cnc3[nH]cc(-c4cnc(OC)nc4)c3c2)cc(C(F)(F)F)c1` [Example 68, N-(3-(3-(2-methoxy-pyrimidin-5-yl)-1H-pyrrolo[2,3-b]pyridin-5-yl)-5-(trifluoromethyl)-phenyl)acrylamide], the IC50 in test [1] (Homo sapiens, Jurkat, 2 h) is at most 1000 nM; on ITK it was at most 100 nM.

For `C=CC(=O)Nc1cc(-c2cnc3[nH]cc(-c4ccnc(C)c4)c3c2)cc(C(F)(F)F)c1` [Example 23, N-(3-(3-(2-methyl-pyridin-4-yl)-1H-pyrrolo[2,3-b]-pyridin-5-yl)-5-(trifluoromethyl)-phenyl)acrylamide], the IC50 in test [1] (Homo sapiens, Jurkat, 2 h) is at most 1000 nM; on ITK it was at most 100 nM.

`C=CC(=O)Nc1cncc(-c2cnc3[nH]cc(-c4ccncn4)c3c2)c1` [Example 50, N-(5-(3-(pyrimidin-4-yl)-1H-pyrrolo-[2,3-b]pyridin-5-yl)pyridin-3-yl)acrylamide]: the IC50 in test [1] (Homo sapiens, Jurkat, 2 h) is at most 1000 nM; on ITK it was at most 100 nM.

Take `CN(C)C/C=C/C(=O)N(C)c1cncc(-c2cnc3[nH]cc(-c4cccc(C#N)c4)c3c2)c1` [Example 72, (E)-N-(5-(3-(3-cyanophenyl)-1H-pyrrolo[2,3-b]-pyridin-5-yl)-pyridin-3-yl)-4-(dimethylamino)-N-methylbut-2-enamide]: the IC50 in test [1] (Homo sapiens, Jurkat, 2 h) is 1000 to 5000 nM; at ITK it was at most 100 nM.

With `C=CC(=O)Nc1cc(F)cc(-c2cnc3[nH]cc(-c4cccc(C#N)c4)c3c2)c1` [Example 69, N-(3-(3-(3-cyano-phenyl)-1H-pyrrolo[2,3-b]-pyridin-5-yl)-5-fluorophenyl)-acrylamide], the IC50 in test [1] (Homo sapiens, Jurkat, 2 h) was above 5000 nM; at ITK it was at most 100 nM.

In the case of `C=CC(=O)Nc1cncc(-c2cnc3[nH]cc(-c4ccnc(C#N)c4)c3c2)c1` [Example 34, N-(5-(3-(2-cyano-pyridin-4-yl)-1H-pyrrolo[2,3-b]-pyridin-5-yl)-pyridin-3-yl)-acrylamide], the 50% inhibitory concentration (IC50) in test [1] (Homo sapiens, Jurkat, 2 h) is at most 1000 nM; on ITK, at most 100 nM.

As to `C=CC(=O)Nc1cc(-c2cnc3[nH]cc(-c4cccc(Cl)c4)c3c2)cc(C(F)(F)F)c1` [Example 58, N-(3-(3-(3-chloro-phenyl)-1H-pyrrolo[2,3-b]-pyridin-5-yl)-5-(trifluoro-methyl)phenyl)-acrylamide], the IC50 in test [1] (Homo sapiens, Jurkat, 2 h) was above 5000 nM; at ITK it was at most 1000 nM.

For the compound `COc1cc(NC(=O)/C=C/CN(C)C)cc(-c2cnc3[nH]cc(-c4ccnc5[nH]ccc45)c3c2)c1` [Example 31, (E)-N-(3-(1H,1′H-[3,4′-bipyrrolo[2,3-b]pyridin]-5-yl)-5-methoxyphenyl)-4-(dimethylamino)-but-2-enamide], the IC50 in test [1] (Homo sapiens, Jurkat, 2 h) was at most 1000 nM; at ITK, at most 100 nM.

For `Cc1cc(-c2c[nH]c3ncc(-c4cc(NC(=O)/C=C/CN(C)C)cc(C(F)(F)F)c4)cc23)ccn1` [Example 33, (E)-4-(dimethyl-amino)-N-(3-(3-(2-methylpyridin-4-yl)-1H-pyrrolo-[2,3-b]-pyridin-5-yl)-5-(trifluoro-methyl)phenyl)-but-2-enamide], the IC50 is at most 1000 nM in test [1] (Homo sapiens, Jurkat, 2 h) and at most 100 nM on ITK.

`CN(C)C/C=C/C(=O)Nc1cc(-c2cnc3[nH]cc(-c4ccnc(F)c4)c3c2)cc(C(F)(F)F)c1` [Example 32, (E)-4-(dimethyl-amino)-N-(3-(3-(2-fluoropyridin-4-yl)-1H-pyrrolo-[2,3-b]pyridin-5-yl)-5-(trifluoro-methyl)phenyl)-but-2-enamide]: the IC50 in test [1] (Homo sapiens, Jurkat, 2 h) is at most 1000 nM; on ITK it was at most 100 nM.

As to `CN(C)C/C=C/C(=O)Nc1cncc(-c2cnc3[nH]cc(-c4ccnc(F)c4)c3c2)c1` [Example 45, (E)-4-(dimethyl-amino)-N-(5-(3-(2-fluoropyridin-4-yl)-1H-pyrrolo-[2,3-b]pyridin-5-yl)pyridin-3-yl)-but-2-enamide], the IC50 in test [1] (Homo sapiens, Jurkat, 2 h) is at most 1000 nM; at ITK it was at most 100 nM.

As to `C=CC(=O)Nc1cc(OC)cc(-c2cnc3[nH]cc(-c4ccnc(F)c4)c3c2)c1` [Example 29, N-(3-(3-(2-fluoro-pyridin-4-yl)-1H-pyrrolo[2,3-b]-pyridin-5-yl)-5-methoxyphenyl)-acrylamide], the IC50 in test [1] (Homo sapiens, Jurkat, 2 h) was at most 1000 nM; at ITK, at most 100 nM.

For `C=CC(=O)Nc1cc(-c2cnc3[nH]cc(-c4ccncn4)c3c2)cc(C(F)(F)F)c1` [Example 22, N-(3-(3-(pyrimidin-4-yl)-1H-pyrrolo-[2,3-b]pyridin-5-yl)-5-(trifluoro-methyl)phenyl)-acrylamide], the IC50 is at most 1000 nM in test [1] (Homo sapiens, Jurkat, 2 h) and at most 100 nM at ITK.

On to `CN(C)C/C=C/C(=O)Nc1cncc(-c2cnc3[nH]cc(-c4ccncn4)c3c2)c1` [Example 57, (E)-4-(dimethyl-amino)-N-(5-(3-(pyrimidin-4-yl)-1H-pyrrolo[2,3-b]pyridin-5-yl)-pyridin-3-yl)but-2-enamide], for which the IC50 in test [1] (Homo sapiens, Jurkat, 2 h) is above 5000 nM; at ITK it was at most 100 nM.

As to `C=CC(=O)Nc1cc(OC)cc(-c2cnc3[nH]cc(-c4cccc(C#N)c4)c3c2)c1` [Example 16, N-(3-(3-(3-cyano-phenyl)-1H-pyrrolo[2,3-b]-pyridin-5-yl)-5-methoxyphenyl)-acrylamide], the IC50 in test [1] (Homo sapiens, Jurkat, 2 h) is at most 1000 nM; on ITK it was at most 100 nM.

As for `C=CC(=O)Nc1cc(OC(F)(F)F)cc(-c2cnc3[nH]cc(-c4cccc(C#N)c4)c3c2)c1` [Example 47, N-(3-(3-(3-cyano-phenyl)-1H-pyrrolo[2,3-b]-pyridin-5-yl)-5-(trifluoromethoxy)-phenyl)acrylamide], the half-maximal inhibitory concentration (IC50) in test [1] (Homo sapiens, Jurkat, 2 h) is 1000 to 5000 nM; on ITK, at most 100 nM.

With `C=CC(=O)Nc1cc(-c2cnc3[nH]cc(-c4cncc(C#N)c4)c3c2)cc(C(F)(F)F)c1` [Example 12, N-(3-(3-(5-cyano-pyridin-3-yl)-1H-pyrrolo[2,3-b]-pyridin-5-yl)-5-(trifluoromethyl)-phenyl)acrylamide], the IC50 is at most 1000 nM in test [1] (Homo sapiens, Jurkat, 2 h) and at most 100 nM at ITK.

As to `CN(C)C/C=C/C(=O)Nc1cncc(-c2cnc3[nH]cc(-c4ccnc(C#N)c4)c3c2)c1` [Example 36, (E)-N-(5-(3-(2-cyanopyridin-4-yl)-1H-pyrrolo-[2,3-b]pyridin-5-yl)pyridin-3-yl)-4-(dimethyl-amino)but-2-enamide], the IC50 in test [1] (Human Jurkat T cells) was at most 1000 nM; on ITK it was at most 100 nM.
